Data: PMC5100569 (Nucleic Acids Research, 2016)

Key:
saCodY [1] = biological target: T1, saCodY (Staphylococcus aureus, UniProt A7X1N2); assay: surface plasmon resonance; format: binding
T1 sequence (A7X1N2 1-257): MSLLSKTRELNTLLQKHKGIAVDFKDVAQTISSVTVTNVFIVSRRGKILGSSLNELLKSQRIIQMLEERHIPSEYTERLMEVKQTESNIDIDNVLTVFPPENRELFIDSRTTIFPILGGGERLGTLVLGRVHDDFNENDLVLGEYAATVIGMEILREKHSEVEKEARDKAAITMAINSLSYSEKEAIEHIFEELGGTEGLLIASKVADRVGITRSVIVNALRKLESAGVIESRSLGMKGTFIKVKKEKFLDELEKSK

saCodY [2] = biological target: saCodY (Staphylococcus aureus, UniProt A7X1N2, E153A); assay: biochemical
saCodY [3] = biological target: saCodY (Staphylococcus aureus, UniProt A7X1N2, H70A/K158A/K47A/R45A/S43A); assay: biochemical
bcCodY = biological target: T2, bcCodY (Bacillus cereus, UniProt Q819X8); assay: size-exclusion chromatography, change of oligomeric state; format: binding; settings: 1 mM GTP, pH 8.0, no Ile
T2 sequence (Q819X8 1-259): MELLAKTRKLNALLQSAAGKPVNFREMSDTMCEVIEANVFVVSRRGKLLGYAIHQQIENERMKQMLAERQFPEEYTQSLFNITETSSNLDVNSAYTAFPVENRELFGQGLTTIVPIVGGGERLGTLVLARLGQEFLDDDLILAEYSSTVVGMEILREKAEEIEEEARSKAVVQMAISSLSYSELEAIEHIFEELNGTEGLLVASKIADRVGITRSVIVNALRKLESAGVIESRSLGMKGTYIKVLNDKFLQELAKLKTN

saCodY 3P5A = biological target: T3, saCodY 3P5A (Staphylococcus aureus, UniProt A7X1N2 1-257, S43A;R45A;K47A;H70A;K158A); assay: EMSA
T3 sequence: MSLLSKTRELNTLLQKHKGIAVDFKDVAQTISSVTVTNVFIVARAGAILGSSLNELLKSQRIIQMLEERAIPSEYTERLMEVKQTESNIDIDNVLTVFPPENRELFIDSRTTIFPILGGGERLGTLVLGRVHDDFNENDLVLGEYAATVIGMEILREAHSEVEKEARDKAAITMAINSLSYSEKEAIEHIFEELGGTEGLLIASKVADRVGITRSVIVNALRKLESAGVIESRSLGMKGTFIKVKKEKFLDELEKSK

saCodY E153A = biological target: T4, saCodY E153A (Staphylococcus aureus, UniProt A7X1N2 1-257, E153A); assay: EMSA
T4 sequence: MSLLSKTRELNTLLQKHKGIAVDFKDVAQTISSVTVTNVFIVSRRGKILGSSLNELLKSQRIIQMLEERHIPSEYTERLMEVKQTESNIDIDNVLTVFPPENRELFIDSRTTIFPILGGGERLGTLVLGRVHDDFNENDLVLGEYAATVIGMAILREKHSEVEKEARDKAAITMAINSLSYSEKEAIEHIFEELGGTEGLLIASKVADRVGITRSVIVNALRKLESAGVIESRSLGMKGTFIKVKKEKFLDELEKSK

SEC = biological target: the molecule itself; assay: SEC
crystal structure = biological target: the molecule itself; assay: crystal structure

Nc1nc2c(ncn2[C@@H]2O[C@H](COP(=O)(O)OP(=O)(O)OP(=O)(O)O)[C@@H](O)[C@H]2O)c(=O)[nH]1 [GTP]
Kd (saCodY [1]): 2.26 mM | Kd (saCodY [2]): 28 mM | Kd (saCodY [3]): 35 mM | size-exclusion chromatography, change of oligomeric state (bcCodY): after incubation of saCodY and bcCodY with GTP, the proteins eluted at much smaller sizes

Nc1ncnc2c1ncn2[C@@H]1O[C@H](COP(=O)(O)OP(=O)(O)OP(=O)(O)O)[C@@H](O)[C@H]1O [ATP]
Kd (saCodY [1]): 19 mM

Nc1nc2c(ncn2[C@@H]2O[C@H](COP(=O)(O)O)[C@@H](O)[C@H]2O)c(=O)[nH]1 [GMP]
Kd (saCodY [1]): 20 mM

Nc1nc2c(ncn2[C@@H]2O[C@H](COP(=O)(O)OP(=O)(O)O)[C@@H](O)[C@H]2O)c(=O)[nH]1 [GDP]
Kd (saCodY [1]): 17 mM

B1: ilvB promoter 45-mer (dsDNA)
DNA 1: CAGGTGGCGTCATGCAAGTCCCTGAGAATTTAATTTAATTTATTT
DNA 2: AAATAAATTAAATTAAATTCTCAGGGACTTGCATGACGCCACCTC
binding signal (saCodY 3P5A): 3 fold Kd vs WT without GTP | binding signal (saCodY E153A): 1.7 fold Kd vs WT without GTP

B2: CodY from Bacillus cereus (bcCodY), wild type (natural protein, UniProt Q819X8 1-259, looked up)
chain: MELLAKTRKLNALLQSAAGKPVNFREMSDTMCEVIEANVFVVSRRGKLLGYAIHQQIENERMKQMLAERQFPEEYTQSLFNITETSSNLDVNSAYTAFPVENRELFGQGLTTIVPIVGGGERLGTLVLARLGQEFLDDDLILAEYSSTVVGMEILREKAEEIEEEARSKAVVQMAISSLSYSELEAIEHIFEELNGTEGLLVASKIADRVGITRSVIVNALRKLESAGVIESRSLGMKGTYIKVLNDKFLQELAKLKTN
stoichiometry N (SEC): 4

B3: CodY from Staphylococcus aureus (saCodY), wild type (natural protein, UniProt A7X1N2 1-257, looked up)
chain: MSLLSKTRELNTLLQKHKGIAVDFKDVAQTISSVTVTNVFIVSRRGKILGSSLNELLKSQRIIQMLEERHIPSEYTERLMEVKQTESNIDIDNVLTVFPPENRELFIDSRTTIFPILGGGERLGTLVLGRVHDDFNENDLVLGEYAATVIGMEILREKHSEVEKEARDKAAITMAINSLSYSEKEAIEHIFEELGGTEGLLIASKVADRVGITRSVIVNALRKLESAGVIESRSLGMKGTFIKVKKEKFLDELEKSK
stoichiometry N (SEC): 4 | stoichiometry N (crystal structure): 2
